In US20260102390A1, “4-(2-(4-((2,4-DIOXOTHIAZOLIDIN-5-YL)METHYL)PHENOXY) DERIVATIVES AS PPARgamma AGONISTS AND AUTOTAXIN INHIBITORS FOR USE IN THE TREATMENT OF FIBROSIS” (Uni-Pharma Kleon Tsetis Pharmaceutical Laboratories S.A., priority 2022, published 2026):
Entries after “also recorded” stand apart in the source; their conditions may differ. Values belong to the compound of their own block, whether it stands above or below them.

Tests used:
ATX = ATX (UniProt Q9R1E6); assay: ATX inhibitory activity, Amplex Red method; assay type: biochemical; conditions: LPC 16:0 50 μM, two independent experiments, read-out: IC50 against ATX
Procedure: The inhibition of ATX enzyme activity of the pharmaceutical compound A-1 was measured in vitro by applying the Amplex Red method. Briefly, 2 μL of concentration from 0.001 to 5 μmol/L of derivative […] in DMSO was incubated with 50 μL ATX 8 nM (up to a final concentration of 2 nM and 1 nM for human ATX) and 48 μL of a buffer solution (50 mM Tris-Cl of pH 8.0 and 5 mM CaCl2) for 15 minutes at 37° C. Subsequently, 50 μL of a buffer solution containing 200 μM LPC 16:0 (final concentration 50 μM) was added to the reaction mixture followed by incubation for another 30 minutes at 37° C. Finally, 50 μL of working solution containing 200 μM Amplex Red reagent and choline oxidase (0.2 U/mL) […] HRP (2 U/mL), in 50 mM Tris-HCl at pH 8.0 and 5 mM CaCl2, was added to begin the reaction. The reaction was monitored at 37° C., in a fluorescence plate reader (Tecan Infinite 200) using excitation at 530 nm and reading at 590 nm, every five minutes for 30 minutes at 37° C. The IC50 value was calculated from two independent experiments, using the sigmoid dose-response curve (PrismH software) from the equation f=y0+a/(1+exp(−(x−x0)/b) given from SigmaPlot 11.0.

Mouse ATX = target: T1, Mouse ATX (Mus musculus, UniProt Q9R1E6); assay: Mode of inhibition of ATX, modified Amplex assay (Lineweaver-Burk); assay type: biochemical; conditions: inhibitor 1-7.5 μM, LPC 25, 50, 100 μM
T1 construct: purchased Sino Biological
Procedure: To determine the mode of inhibition of ATX by each inhibitor, a modified Amplex assay was employed. In brief, various concentrations of inhibitors (1, 2.5, 5 and 7.5 μM) were tested against various substrate concentrations (LPC 25, 50, 100 μM). Mouse ATX from Sino Biological was used in all mode of inhibition assays. Thereafter, the velocity (V) of the reaction was calculated and the reciprocal of velocity (1/V) was plotted against the reciprocal of substrate concentration (1/S) in Lineweaver-Burk graphs using GraphPad Software (GraphPad Software, San Diego, CA, USA).

choline oxidase = assay: 2nd reaction of the Amplex Red assay (counter-test); assay type: biochemical; conditions: 2nd reaction of Amplex Red assay
HRP peroxidase = target: T2, HRP peroxidase (Armoracia rusticana, UniProt P00433); assay: 3rd reaction of the Amplex Red assay (counter-test); assay type: biochemical; conditions: 3rd reaction of Amplex Red assay
T2 sequence (P00433 31-338 limits assumed): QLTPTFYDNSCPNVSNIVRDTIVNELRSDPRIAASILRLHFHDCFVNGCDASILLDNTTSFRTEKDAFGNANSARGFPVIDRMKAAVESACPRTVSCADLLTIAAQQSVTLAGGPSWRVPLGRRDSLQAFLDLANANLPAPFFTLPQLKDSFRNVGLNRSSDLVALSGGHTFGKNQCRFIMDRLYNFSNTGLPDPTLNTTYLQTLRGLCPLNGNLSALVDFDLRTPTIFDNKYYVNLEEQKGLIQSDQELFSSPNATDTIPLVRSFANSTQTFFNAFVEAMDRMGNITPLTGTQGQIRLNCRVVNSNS

[1] = In vitro absorption assay, membrane permeability; assay type: in vitro ADME; conditions: dog, MDCK, MDCKII
Procedure: The in vitro absorption assay was performed in the kidney MDCKII cell line and involves the permeability from A to B, when A and B are separated by an MDCKII cell membrane. Ideally, a compound should have a high A to B permeability, but a lower B to A permeability in order to be well-absorbed. […] The A-B permeability is much higher than the B-A permeability, thus both compounds are absorbed well in vitro.

[2] = In vitro metabolism assay in liver microsomes; assay type: in vitro ADME
Procedure: The in vitro metabolism assay was performed in liver microsomes. […] This half-live is higher than the ones of known drugs such as imipramine and others, therefore, it seems that A-1 is not quickly cleared from the circulation and, thus, remain available in the circulation for a sufficient period of time.

hERG = target: T3, hERG (Homo sapiens, UniProt Q12809); assay: Cardiac toxicity assay, hERG inhibition in CHO cells; assay type: cell-based; conditions: for cardiotoxicity (conclusion): from hERG assay
T3 construct: expressed in transfected cells; host or cells: CHO cells
Procedure: The assay of cardiac toxicity is performed on CHO cells that express the human ether-a-go-go related gene (hERG) that encodes the inward rectifying voltage gated potassium channel in the heart, which is involved in cardiac repolarisation. Inhibition of the hERG may cause potentially fatal ventricular tachyarrhythmia.

[3] = test system: BLM-induced pulmonary fibrosis; assay: Bleomycin (BLM)-induced pulmonary fibrosis in mice, dosing from one day before BLM; assay type: in vivo, C57Bl6/J mice
Procedure: 10-week-old male wild-type C57Bl6/J animals were administered a saline solution of bleomycin (BLM) directly to the lungs via the orotracheal route. The dose of bleomycin was 0.8 U/kg. […] All animals were monitored daily until the 14th day after the BLM injection when they were killed. […] Serum, broncheoalveolar fluid and lung tissue samples were taken at the end point of the experiment and were used to assess the severity of fibrosis for each animal.
Blood serum was collected for each animal and levels of ALT and AST transaminases, which are markers of liver damage, were assessed by using an automated biochemical analyzer.
Next, in the collected broncheoalveolar fluid, the number of cells as well as the total protein concentration were assessed as indicators of inflammation and endothelial penetration, respectively.
Additionally, in sections of lung tissue isolated from the animals, fibrosis was assessed after staining with hematoxylin and eosin.
The mRNA levels of fibrosis-related genes col1α1 (collagen 1α1) in whole lung RNA samples were also estimated.

[4] = test system: BLM-induced pulmonary fibrosis; assay: BLM-induced pulmonary fibrosis in mice, inhalation in therapeutic mode; assay type: in vivo, C57B16/J mice; conditions: inhalation 15 mg/Kg twice daily for 7 days, from 7d post BLM
Procedure: To explore the therapeutic potential of ATX inhibition in pulmonary fibrosis, BLM was administered to 8-10-week-old C57B16/J mice. Subsequently, the pharmaceutical compound A-1 was delivered for 7 days twice daily via inhalation (1 ml of 6.5 mg/ml for 10 mins/6 mice, corresponding to 15 mg/Kg per mouse) to conscious, gently re-strained mice, in a therapeutic mode (7d post BLM).

[5] = 30 mg/kg, 2 doses daily, vs B+V group

T3 sequence (Q12809 whole entry): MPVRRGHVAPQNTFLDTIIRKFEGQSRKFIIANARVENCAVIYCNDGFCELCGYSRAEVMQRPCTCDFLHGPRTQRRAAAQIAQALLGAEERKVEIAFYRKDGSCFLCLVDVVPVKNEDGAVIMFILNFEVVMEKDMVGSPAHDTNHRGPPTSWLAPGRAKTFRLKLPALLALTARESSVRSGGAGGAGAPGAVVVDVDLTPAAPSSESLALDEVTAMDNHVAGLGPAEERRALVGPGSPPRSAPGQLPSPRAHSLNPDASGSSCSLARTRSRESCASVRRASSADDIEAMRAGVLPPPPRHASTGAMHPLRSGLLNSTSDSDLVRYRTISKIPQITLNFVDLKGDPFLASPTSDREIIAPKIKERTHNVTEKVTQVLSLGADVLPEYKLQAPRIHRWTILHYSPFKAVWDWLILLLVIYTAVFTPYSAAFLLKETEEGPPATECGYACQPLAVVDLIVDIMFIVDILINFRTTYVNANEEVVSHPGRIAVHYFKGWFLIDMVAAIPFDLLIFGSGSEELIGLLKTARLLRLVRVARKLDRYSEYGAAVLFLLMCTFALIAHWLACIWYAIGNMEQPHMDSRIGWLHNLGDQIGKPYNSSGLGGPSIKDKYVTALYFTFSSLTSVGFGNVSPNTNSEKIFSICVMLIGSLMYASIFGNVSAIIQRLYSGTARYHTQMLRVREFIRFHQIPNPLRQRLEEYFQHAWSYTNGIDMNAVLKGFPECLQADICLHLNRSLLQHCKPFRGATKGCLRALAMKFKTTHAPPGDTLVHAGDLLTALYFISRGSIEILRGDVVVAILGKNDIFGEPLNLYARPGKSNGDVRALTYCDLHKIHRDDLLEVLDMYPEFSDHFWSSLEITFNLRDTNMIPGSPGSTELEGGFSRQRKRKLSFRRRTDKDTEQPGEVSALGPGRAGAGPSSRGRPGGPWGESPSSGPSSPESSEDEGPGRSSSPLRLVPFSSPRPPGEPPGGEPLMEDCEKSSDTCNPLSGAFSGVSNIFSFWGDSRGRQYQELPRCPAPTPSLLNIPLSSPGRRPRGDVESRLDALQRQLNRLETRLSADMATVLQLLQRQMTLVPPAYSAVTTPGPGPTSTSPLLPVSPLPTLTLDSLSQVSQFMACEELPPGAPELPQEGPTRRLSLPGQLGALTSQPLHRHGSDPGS

SMILES: O=C1NC(=O)C(Cc2ccc(OCCN3CCN(C(=O)OCc4cc(Cl)cc(Cl)c4)CC3)cc2)S1 (centres unmarked) [A-1, 3,5-dichlorobenzyl4-(2-(4-((2,4-dioxothiazolidin-5-yl)methyl)phenoxy)ethyl)piperazine-1-carboxylate]
IC50 (ATX): 190 nM | mode of inhibition against ATX (Mouse ATX): non-competitive inhibition | inhibition of choline oxidase (choline oxidase): no inhibition; also recorded: Neither compound showed any detectable inhibition | inhibition of HRP peroxidase (HRP peroxidase): no inhibition; also recorded: Neither compound showed any detectable inhibition | Papp A→B ([1]; A to B): 3.7 ×10⁻⁶ cm/s | Papp B→A ([1]; B to A): 0.8 ×10⁻⁶ cm/s | microsomal CLint ([2]; liver microsomes, read-out: Clint (intrinsic clearance)): 329 µL/min/mg | half-life ([2]; microsomes): 21 min | IC50 (hERG): 12000 nM | cardiotoxicity (conclusion) (hERG): not cardiotoxic; also recorded: does not exhibit cardiotoxicity | side effects during the model ([3]; 30 mg/kg, 2 doses daily, 14 days post BLM, vs untreated group): did not suffer any unwanted side effects | fibrotic areas in lung sections, hematoxylin and eosin [3, 5]: less fibrotic areas | number of cells in bronchoalveolar fluid [3, 5]: reduced number of cells | total protein concentration in bronchoalveolar fluid [3, 5]: lower levels | col1α1 mRNA levels in whole lung ([3]; 30 mg/kg, 2 doses daily, vs B+V, restored to S+V level): reduces the mRNA levels (expression) of col1α1 statistically significantly | serum ALT level ([3]; 30 mg/kg, 2 doses daily, normal range 28-132 U/L): normal | serum AST level ([3]; 30 mg/kg, 2 doses daily, normal range 59-247 U/L): normal | liver toxicity / hepatotoxicity (conclusion) ([3]; from ALT and AST levels): does not cause any adverse toxicity to the liver; also recorded: does not exhibit hepatotoxicity | inflammatory cells in BALF [4]: significantly reduced | lung architecture, H&E staining [4]: prevented BLM-induced architectural distortion | lung respiratory functions (FlexiVent) [4]: relative protection | vascular leak and pulmonary edema (total protein concentration in BALF) [4]: noteworthy decrease

SMILES: O=C1NC(=O)C(Cc2ccc(OCCC3CCN(C(=O)OCc4cc(Cl)cc(Cl)c4)CC3)cc2)S1 (centres unmarked) [A-3, 3,5-dichlorobenzyl 4-(2-(4-((2,4-dioxothiazolidin-5-yl)methyl)phenoxy)ethyl)piperidine-1-carboxylate]
IC50 (ATX): 30 nM | mode of inhibition against ATX (Mouse ATX): non-competitive inhibition | inhibition of choline oxidase (choline oxidase): no inhibition; also recorded: Neither compound showed any detectable inhibition | inhibition of HRP peroxidase (HRP peroxidase): no inhibition; also recorded: Neither compound showed any detectable inhibition | cardiotoxicity (conclusion) (hERG): not cardiotoxic; also recorded: does not exhibit cardiotoxicity | inhibition at 25 µM (hERG; human, at 25 μM): 11%

IC50 (ATX): 610 nM
SMILES: Cc1c(C)c2c(c(C)c1O)CCC(C)(COc1ccc(CC3SC(=O)NC3=O)cc1)O2 (centres unmarked) [TGL, troglitazone, reference compound]
